In US8293682B2, “Growth regulators for gramineous weeds” (Rikengreen Co., Ltd., priority 2008, dated 2012):

Tests used:
[1] = test system: annual bluegrass (Poa annua L.); assay: Test Example 2: count of ear emergence, poly-cup, applications at intervals / alternate application; assay type: in vivo
Protocol: At the initial stage of the ear emergence of annual bluegrass (Poa annua L.) grown in a poly-cup of 11 cm×11 cm, benzyladenine (Beanine for painting; made by Rikengreen; containing 1% benzyladenine) and/or ethephon (Ethrel 10 soluble concentrate; Nissan Chemical Industries; containing 10% ethephon) were diluted in a predetermined amount of water, and a spreader (Riken Sprayzer (registered trade mark); made by Rikengreen) was added so as to be 1/1,000-fold concentration; the respectively diluted solutions were applied by atomization at a dose and intervals as indicated in Table (scattered solution: 200 mL/m^2), and the number of emerged ears of annual bluegrass (Poa annua L.) in the cup was counted through time. The test was carried out serially. […] The symbol “●” in Table indicates the treatment with benzyladenine, “◯” the treatment with ethephon, and “−” untreated. Dose means the amount at a single application.

[2] = test system: annual bluegrass (Poa annua L.); assay: Test Example 3: number of emerged ears and leaves, poly-cup, two applications; assay type: in vivo; conditions: for Ear (number of emerged ears in the cup) / [Leaf] (number of leaves within 6 cm×6 cm): 2nd application after 29 days
Protocol: At the initial stage of the ear emergence of annual bluegrass (Poa annua L.) grown in a poly-cup of 11 cm×11 cm, benzyladenine (Beanine for painting; made by Rikengreen; containing 1% benzyladenine) and ethephon (Ethrel 10 soluble concentrate; Nissan Chemical Industries; containing 10% ethephon) were diluted in a predetermined amount of water, and a spreader (Riken Sprayzer (registered trade mark); made by Rikengreen) was added so as to be 1/1,000-fold concentration; the respectively diluted solutions were applied by atomization at a dose as indicated in Table (scattered solution: 200 mL/m^2), and after a lapse of 29 days, the 2nd application was carried out. Then, the number of emerged ears of annual bluegrass (Poa annua L.) in the cup was counted. Further, the number of leaves [Leaf] of annual bluegrass (Poa annua L.) was counted within the area of 6 cm×6 cm in the cup. The test was carried out serially. […] Dose means the amount at a single application.

[3] = test system: annual bluegrass (Poa annua L.); assay: Test Example 4: field test in bent green turf, emerged ear number; assay type: in vivo; conditions: applied Day 0 and after 30 days
Protocol: In a bent green turf where annual bluegrasses (Poa annua L.) were grown, a test zone of 1 m×1 m was provided. Benzyladenine (Beanine for painting; made by Rikengreen; containing 1% benzyladenine) and ethephon (Ethrel 10 soluble concentrate; Nissan Chemical Industries; containing 10% ethephon) were diluted in a predetermined amount of water, and a spreader (Riken Sprayzer (registered trade mark); made by Rikengreen) was added so as to be 1/1,000-fold concentration. The respectively diluted solutions were applied to each test zone at the first application (Day 0) at a dose as indicated in Table, and after a lapse of 30 days the second application was carried out. The amount of solution scattered was 100 mL/m^2 both in the first and second applications. The number of ear emergence of annual bluegrass (Poa annua L.) within the area of 10×10 cm was counted at regular intervals at 3 spots per zone. […] Dose means the amount at a single application.

[4] = test system: southern crabgrasses (Digitaria ciliaris Koel.); assay: Test Example 5: field test in Manilagrass turf, inhibitory effect for ear emergence; assay type: in vivo
Protocol: In a Manilagrass (Zoysia matrella) turf where southern crabgrasses (Digitaria ciliaris Koel.) were grown, a test zone of 1 m×1 m was provided. Benzyladenine (Beanine for painting; made by Rikengreen; containing 1% benzyladenine) and ethephon (Ethrel 10 soluble concentrate; Nissan Chemical Industries; containing 10% ethephon) were diluted in a predetermined amount of water. The respectively diluted solutions were applied to each test zone at the first application (Day 0) at a dose as indicated in Table, and after a lapse of 17 days the second application was carried out. The first application was conducted before the ear emergence of southern crabgrasses (Digitaria ciliaris Koel.). The amount of solution scattered was 150 mL/m^2 both in the first and second applications. The inhibitory effect for the ear emergence of southern crabgrasses (Digitaria ciliaris Koel.) within the area of 1 m×1 m was evaluated according to the standard as described in Table 7. […] The symbol “●” in Table 8 indicates the treatment with each agent, and “−” means untreated. Dose means the amount at a single application.

lawn grasses = conditions: cited from earlier work
[5] = Day 46, Benzyladenine + Ethephon 2 + 0 mg a.i./m^2
[6] = Day 46, Benzyladenine + Ethephon 4 + 0 mg a.i./m^2

c1ccc(CNc2ncnc3nc[nH]c23)cc1 [Benzyladenine, 6-benzylaminopurine]
Count of ear emergence ([1]; Day 25, Benzyladenine 0.67 mg a.i./m^2 applied Day 0, 6, 12): 37 | Count of ear emergence ([1]; Day 25, Benzyladenine 0.67 mg a.i./m^2 applied Day 6, 12): 34 | Count of ear emergence ([1]; Day 25, Benzyladenine 0.67 mg a.i./m^2 applied Day 12): 37 | Count of ear emergence ([1]; Day 25, Benzyladenine 2 mg a.i./m^2 applied Day 0, 6, 12): 20 | Count of ear emergence ([1]; Day 25, Benzyladenine 2 mg a.i./m^2 applied Day 6, 12): 14 | Count of ear emergence ([1]; Day 25, Benzyladenine 2 mg a.i./m^2 applied Day 12): 22 | Count of ear emergence ([1]; Day 33, Benzyladenine 0.67 mg a.i./m^2 applied Day 0, 6, 12): 50 | Count of ear emergence ([1]; Day 33, Benzyladenine 0.67 mg a.i./m^2 applied Day 6, 12): 24 | Count of ear emergence ([1]; Day 33, Benzyladenine 0.67 mg a.i./m^2 applied Day 12): 28 | Count of ear emergence ([1]; Day 33, Benzyladenine 2 mg a.i./m^2 applied Day 0, 6, 12): 26 | Count of ear emergence ([1]; Day 33, Benzyladenine 2 mg a.i./m^2 applied Day 6, 12): 15 | Count of ear emergence ([1]; Day 33, Benzyladenine 2 mg a.i./m^2 applied Day 12): 23 | Ear (number of emerged ears in the cup) ([2]; Day 23, Benzyladenine + Ethephon 2 + 0 mg a.i./m^2): 12 | Ear (number of emerged ears in the cup) ([2]; Day 23, Benzyladenine + Ethephon 4 + 0 mg a.i./m^2): 2 | Ear (number of emerged ears in the cup) [2, 5]: 54 | [Leaf] (number of leaves within 6 cm×6 cm) [2, 5]: [105] | Ear (number of emerged ears in the cup) [2, 6]: 55 | [Leaf] (number of leaves within 6 cm×6 cm) [2, 6]: [108] | Ear (number of emerged ears in the cup) ([2]; Day 53, Benzyladenine + Ethephon 2 + 0 mg a.i./m^2): 43 | Ear (number of emerged ears in the cup) ([2]; Day 53, Benzyladenine + Ethephon 4 + 0 mg a.i./m^2): 48 | inhibition of ear emergence (summary in words) ([2]; Test Example 3): strongly inhibits the ear emergence | number of leaves (bud number) (summary in words) ([2]; Test Example 3): increases the number of leaves | Ear (mean emerged ear number within 10×10 cm) ([3]; Day 22, Ethephon 0, Benzyladenine 4 mg a.i./m^2): 62.3 | Ear (mean emerged ear number within 10×10 cm) ([3]; Day 22, Ethephon 0, Benzyladenine 8 mg a.i./m^2): 34.3 | Ear (mean emerged ear number within 10×10 cm) ([3]; Day 22, Ethephon 0, Benzyladenine 12 mg a.i./m^2): 27.0 | Ear (mean emerged ear number within 10×10 cm) ([3]; Day 41, Ethephon 0, Benzyladenine 4 mg a.i./m^2): 150.3 | Ear (mean emerged ear number within 10×10 cm) ([3]; Day 41, Ethephon 0, Benzyladenine 8 mg a.i./m^2): 59.7 | Ear (mean emerged ear number within 10×10 cm) ([3]; Day 41, Ethephon 0, Benzyladenine 12 mg a.i./m^2): 32.7 | Ear (mean emerged ear number within 10×10 cm) ([3]; Day 61, Ethephon 0, Benzyladenine 4 mg a.i./m^2): 107.0 | Ear (mean emerged ear number within 10×10 cm) ([3]; Day 61, Ethephon 0, Benzyladenine 8 mg a.i./m^2): 53.0 | Ear (mean emerged ear number within 10×10 cm) ([3]; Day 61, Ethephon 0, Benzyladenine 12 mg a.i./m^2): 41.0 | Evaluation: index of inhibitory effect for ear emergence ([4]; Day 18, Benzyladenine 2.5 mg a.i./m^2, applied Day 0): 0 (0% or more-less than 10%) | Evaluation: index of inhibitory effect for ear emergence ([4]; Day 18, Benzyladenine 5 mg a.i./m^2, applied Day 0): 0 (0% or more-less than 10%) | Evaluation: index of inhibitory effect for ear emergence ([4]; Day 18, Benzyladenine 10 mg a.i./m^2, applied Day 0): 2 (20% or more-less than 30%) | Evaluation: index of inhibitory effect for ear emergence ([4]; Day 18, Benzyladenine 15 mg a.i./m^2, applied Day 0): 10 (100%) | Evaluation: index of inhibitory effect for ear emergence ([4]; Day 26, Benzyladenine 2.5 mg a.i./m^2, applied Day 0): 0 (0% or more-less than 10%) | Evaluation: index of inhibitory effect for ear emergence ([4]; Day 26, Benzyladenine 2.5 mg a.i./m^2, applied Day 0 and Day 17): 1 (10% or more-less than 20%) | Evaluation: index of inhibitory effect for ear emergence ([4]; Day 26, Benzyladenine 5 mg a.i./m^2, applied Day 0): 0 (0% or more-less than 10%) | Evaluation: index of inhibitory effect for ear emergence ([4]; Day 26, Benzyladenine 5 mg a.i./m^2, applied Day 0 and Day 17): 2 (20% or more-less than 30%) | Evaluation: index of inhibitory effect for ear emergence ([4]; Day 26, Benzyladenine 10 mg a.i./m^2, applied Day 0): 2 (20% or more-less than 30%) | Evaluation: index of inhibitory effect for ear emergence ([4]; Day 26, Benzyladenine 10 mg a.i./m^2, applied Day 0 and Day 17): 6 (60% or more-less than 70%) | Evaluation: index of inhibitory effect for ear emergence ([4]; Day 26, Benzyladenine 15 mg a.i./m^2, applied Day 0): 9 (90% or more-less than 100%) | Evaluation: index of inhibitory effect for ear emergence ([4]; Day 26, Benzyladenine 15 mg a.i./m^2, applied Day 0 and Day 17): 10 (100%) | Evaluation: index of inhibitory effect for ear emergence ([4]; Day 33, Benzyladenine 2.5 mg a.i./m^2, applied Day 0): 0 (0% or more-less than 10%) | Evaluation: index of inhibitory effect for ear emergence ([4]; Day 33, Benzyladenine 2.5 mg a.i./m^2, applied Day 0 and Day 17): 3 (30% or more-less than 40%) | Evaluation: index of inhibitory effect for ear emergence ([4]; Day 33, Benzyladenine 5 mg a.i./m^2, applied Day 0): 1 (10% or more-less than 20%) | Evaluation: index of inhibitory effect for ear emergence ([4]; Day 33, Benzyladenine 5 mg a.i./m^2, applied Day 0 and Day 17): 3 (30% or more-less than 40%) | Evaluation: index of inhibitory effect for ear emergence ([4]; Day 33, Benzyladenine 10 mg a.i./m^2, applied Day 0): 5 (50% or more-less than 60%) | Evaluation: index of inhibitory effect for ear emergence ([4]; Day 33, Benzyladenine 10 mg a.i./m^2, applied Day 0 and Day 17): 7 (70% or more-less than 80%) | Evaluation: index of inhibitory effect for ear emergence ([4]; Day 33, Benzyladenine 15 mg a.i./m^2, applied Day 0): 7 (70% or more-less than 80%) | Evaluation: index of inhibitory effect for ear emergence ([4]; Day 33, Benzyladenine 15 mg a.i./m^2, applied Day 0 and Day 17): 8 (80% or more-less than 90%) | Evaluation: index of inhibitory effect for ear emergence ([4]; Day 41, Benzyladenine 2.5 mg a.i./m^2, applied Day 0): 0 (0% or more-less than 10%) | Evaluation: index of inhibitory effect for ear emergence ([4]; Day 41, Benzyladenine 2.5 mg a.i./m^2, applied Day 0 and Day 17): 1 (10% or more-less than 20%) | Evaluation: index of inhibitory effect for ear emergence ([4]; Day 41, Benzyladenine 5 mg a.i./m^2, applied Day 0): 2 (20% or more-less than 30%) | Evaluation: index of inhibitory effect for ear emergence ([4]; Day 41, Benzyladenine 5 mg a.i./m^2, applied Day 0 and Day 17): 5 (50% or more-less than 60%) | Evaluation: index of inhibitory effect for ear emergence ([4]; Day 41, Benzyladenine 10 mg a.i./m^2, applied Day 0): 2 (20% or more-less than 30%) | Evaluation: index of inhibitory effect for ear emergence ([4]; Day 41, Benzyladenine 10 mg a.i./m^2, applied Day 0 and Day 17): 6 (60% or more-less than 70%) | Evaluation: index of inhibitory effect for ear emergence ([4]; Day 41, Benzyladenine 15 mg a.i./m^2, applied Day 0): 4 (40% or more-less than 50%) | Evaluation: index of inhibitory effect for ear emergence ([4]; Day 41, Benzyladenine 15 mg a.i./m^2, applied Day 0 and Day 17): 8 (80% or more-less than 90%) | rooting of lawn grasses (lawn grasses; Non-patent document 1): effect for accelerating the rooting of lawn grasses | growth of lawn grasses (lawn grasses; Patent document 1): effect for accelerating the growth of lawn grasses
